Laboratory results reported in PubChem BioAssay (NCI).
“And” between values parts separate entries of the source, which are not always exact repeats. Identical values can stand only once.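 48-hour exposure; five concentrations; linearly interpolated endpoints. Abbreviation: GI50, concentration required for 50% inhibition of growth. TGI marks complete inhibition of growth.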

Key:
Assay in all cases: DTP human tumour cell line panel, 48 h
[1] = test system: A549 NSCLC
[2] = test system: MDA-MB-435
[3] = test system: U251 CNS
[4] = test system: SK-MEL-28 melanoma
[5] = test system: OVCAR-3 ovarian
[6] = test system: COLO 205 colon
[7] = test system: BT-549 breast
[8] = test system: HCT-116 colon
[9] = test system: SF-295 CNS
[10] = test system: CCRF-CEM leukemia
[11] = test system: SNB-75 CNS

Compound | TGI [1] | TGI [2] [µM] | TGI [3] | TGI [4] | TGI [5] | TGI [6] | TGI [7] [µM] | TGI [8] | TGI [9] | TGI [10] | TGI [11] | GI50 [2] [µM] | GI50 [4] [µM] | GI50 [5] [µM] | GI50 [6] | GI50 [7] [µM] | GI50 [8] [µM] | GI50 [9] [µM] | GI50 [11]
CC[C@]12C=CCN3CCC4(c5cc(N=Nc6ccccc6)c(OC)cc5N(C)[C@H]4[C@@](O)(C(=O)OC)[C@@H]1OC(C)=O)[C@@H]32 (stereo partly drawn) | 40.9 µM | 37.9 | 29.4 µM | 36.8 µM | 28.1 µM | 77.1 µM | 35.6 | 31.2 µM | 34.5 µM |  |  |  |  |  |  |  |  |  | 
O=C(c1ccccc1)c1c(C(F)(F)F)n([O-])c2ccccc2[n+]1=O |  |  | > 100 µM | 4.33 µM | 1.41 µM |  | 1.93 | > 100 µM |  | > 100 µM | 2.74 µM |  |  |  |  |  |  |  | 
O=C(O)C(CCc1ccccn1)c1ccccc1 (stereo not drawn) | > 100 µM | > 100 | > 100 µM | > 100 µM | > 100 µM | > 100 µM | > 100 | > 100 µM | > 100 µM |  | > 100 µM |  |  |  |  |  |  |  | 
C#CCNC(Cc1cnc[nH]1)C(=O)O (stereo not drawn) | > 100 µM | > 100 | > 100 µM | > 100 µM | > 100 µM | > 100 µM |  | > 100 µM | > 100 µM | > 100 µM | > 100 µM |  |  |  |  |  |  |  | 
Cn1c(=O)c2c(-c3ccccc3)onc2n(C)c1=O | > 100 µM | > 100 | > 100 µM |  | 53.1 µM | > 100 µM | 45.2 | > 100 µM | > 100 µM | 77.9 µM | > 100 µM |  |  |  |  |  |  |  | 
COc1cc(C2C3=C(CCC3=O)Oc3cc4c(cc32)OCO4)cc(OC)c1OC (stereo not drawn) | > 100 µM |  | > 100 µM | > 100 µM | 0.381 µM | 1.81 µM |  | > 100 µM | 0.532 µM | > 100 µM | 0.481 µM |  |  |  |  |  |  |  | 
CN(C)CCOC(=O)COc1ccc(Cl)cc1 | > 100 µM | > 100 | > 100 µM | > 100 µM | > 100 µM | > 100 µM |  | > 100 µM | > 100 µM | > 100 µM | > 100 µM |  |  |  |  |  |  |  | 
Cc1csc2c1C(=O)c1ccsc1C2=O | 3.55 µM | 0.447 | 13.6 µM | 2.95 µM | 5.44 µM | 24.8 µM |  | 4.7 µM | 2.99 µM | > 100 µM | 3.51 µM |  |  |  |  |  |  |  | 
N#CCCC1C(C#N)C2CC1C1C3C=CC(C3)C21 (stereo not drawn) | > 100 µM | > 100 |  | > 100 µM | > 100 µM | > 100 µM | > 100 | > 100 µM | > 100 µM | > 100 µM | > 100 µM |  |  |  |  |  |  |  | 
O=c1[nH]c(=O)n(C2OC(COP(=O)(O)OP(=O)(O)O)C(O)C2O)cc1F (stereo not drawn) | > 41.4 µM |  | > 25.2 µM | > 50 µM | > 50 µM | > 50 µM |  | > 17 µM | > 50 µM | > 50 µM | > 50 µM |  |  |  |  |  |  |  | 
CN1CCn2c(Br)ccc2C1=O | > 100 µM |  | > 100 µM | > 100 µM | > 100 µM | > 100 µM |  | > 100 µM | > 100 µM | > 100 µM |  |  |  |  |  |  |  |  | 
Clc1nc(-[n+]2ccc(-c3ccncc3)cc2)nc(Nc2ccccc2)c1Cl | > 100 µM | > 100 | > 100 µM | > 100 µM | > 100 µM | > 100 µM | > 100 | > 100 µM |  | 90.2 µM |  |  |  |  |  |  |  |  | 
Nc1nc(Cl)cc(N=Nc2ccccc2)n1 | > 100 µM | > 100 |  | > 100 µM | 30.3 µM | > 100 µM | > 100 | 32.2 µM | > 100 µM | > 100 µM | > 100 µM |  |  |  |  |  |  |  | 
CC1(O)C=CC2CCC1C2O (stereo not drawn) | > 100 µM |  | > 100 µM | > 100 µM | > 100 µM | 75.7 µM |  | 36.2 µM | > 100 µM | > 100 µM | > 100 µM |  |  |  |  |  |  |  | 
Cc1ccc(C(=O)N(C(C)C)C(C)C)cc1N=NN(C)C | > 100 µM | > 100 | > 100 µM | > 100 µM | > 100 µM | > 100 µM | > 100 | > 100 µM | > 100 µM |  |  |  |  |  |  |  |  |  | 
O=C(c1ccc2ccccc2c1)C1S(=O)(=O)OCCOS1(=O)=O | > 100 µM | > 100 | > 100 µM | > 100 µM | > 100 µM | > 100 µM | > 100 | > 100 µM | > 100 µM | > 100 µM |  |  |  |  |  |  |  |  | 
O=C1c2[nH]cc(CN3CCNCC3)c2C(=O)c2c1c(O)c1ccccc1c2O |  | 4.59 |  | 3.6 µM | 4.05 µM | 3.39 µM | 20.3 | 2.25 µM | 3.37 µM |  | 37.8 µM | 2.54 | 1.62 | 1.77 | 1.59 µM | 4.86 | 1.07 | 1.74 | 15.4 µM
COC(=O)c1ccc(-c2nc(C#N)c(N)o2)cc1 | > 100 µM | > 100 | > 100 µM | > 100 µM | > 100 µM | > 100 µM | > 100 | > 100 µM | > 100 µM | > 100 µM |  |  |  |  |  |  |  |  | 
CCN(CC)CCO/N=C1\CC[C@H]2[C@@H]3CC=C4C[C@@H](O)CC[C@]4(C)[C@H]3CC[C@]12C |  | 31.9 | 35.9 µM | 31.1 µM | 43.8 µM | 26.1 µM | 44.4 | 30.2 µM | 38.6 µM |  | 91.1 µM |  |  |  |  |  |  |  | 
O=C1NC(=S)N/C1=C/c1ccccc1O | > 100 µM | > 100 | > 100 µM | > 100 µM | > 100 µM | > 100 µM | > 100 | > 100 µM | > 100 µM | > 100 µM |  |  |  |  |  |  |  |  | 
CCOc1ccc2[nH]c3c(C)c4cc[n+](C)cc4c(C)c3c2c1 | 43.9 µM and > 100 µM |  | 1.08 µM and 1.15 µM | 7.9 µM and 13 µM | 22.5 µM and 51.7 µM | 2.62 µM and 4.69 µM |  | 18.5 µM and > 37.7 µM | 0.672 µM and 1.55 µM | 23.7 µM and 37.3 µM | 0.452 µM and 0.291 µM |  |  |  | 0.791 µM and 1.6 µM |  |  |  | 0.18 µM and 0.0795 µM
CC1(C)COC(c2cccc(C3=NC(C)(C)CO3)c2Br)=N1 | > 100 µM | > 100 | > 100 µM | > 100 µM |  | > 100 µM | > 100 | > 100 µM |  |  | > 100 µM |  |  |  |  |  |  |  | 
